Test results taken from patent US10780092B2, “Fused pyrazine derivatives useful as soluble guanylate cyclase stimulators” (Merck Sharp & Dohme Corp., priority 2016, dated 2020).

Assays:
[1] = target: sGC α1/β1 heterodimer (Homo sapiens (Human), UniProt Q02108+Q02153); experiment: Cell-based sGC functional assay (CASA assay), cGMP by HTRF; settings: CHO-K1/sGC cells; for Emax: CHO-K1, cGMP production as percentage of maximum of compound A (set to 100%), read-out: % Activation; for EC50: inflection point of cGMP production, 4P fit, read-out: IP
Summary of the method: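 CHO-K1 cells stably expressing human sGC α1/β1, with 0.5 mM IBMX, pre-incubated ±1 μM DETA-NO 30 min at 25° C, then compound 1 hr at 37° C (2.5% DMSO). cGMP by HTRF; activation as % of reference activator maximum, 4P fit giving inflection point and maximum […].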

[2] = target: human recombinant sGC enzyme (Homo sapiens (Human), UniProt Q02108+Q02153); experiment: SEC competition binding assay with [3H] Compound B radioligand; settings: displacement of 1.6 nM [3H] Compound B, 24 h at 37° C.
Summary of the method: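 Recombinant human sGC incubated with 1.6 nM [3H] Compound B and test compounds for 24 h at 37° C. Buffer: 50 mM triethanolamine pH 7.4, 3 mM MgCl2, 0.025% BSA, 2 mM DTT, 300 μM DETA/NO, 400 μM GTP, 1% DMSO. Bound ligand separated by gel filtration and counted by scintillation; non-specific binding with 1 μM Compound B; Ki from one-site fit.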

Row | Emax [1] [%] | EC50 [1] [nM] | Ki [2] [nM] | SMILES
1 | 102 | 217 | 0.098 | CC1(c2cc(O)c(Cl)c(F)c2)C(=O)Nc2nc(-c3cn4ccnc4c(Cc4cc(F)cc(F)c4F)n3)nc(N)c21 (stereo not drawn) [Example 7-B, 4-Amino-5-(4-chloro-3-fluoro-5-hydroxyphenyl)-5-methyl-2-{8-[(2,3,5-trifluorophenyl)methyl]imidazo[1,2-a]pyrazin-6-yl}-5,7-dihydro-6H-pyrrolo[2,3-d]pyrimidin-6-one]
2 | 164 | 601 | 0.508 | CC1(c2ccc(O)c(F)c2)C(=O)Nc2nc(-c3cn4ccnc4c(Cc4cccc(F)c4)n3)nc(N)c21 (stereo not drawn) [Example 125-B, 4-Amino-5-(3-fluoro-4-hydroxyphenyl)-2-{8-[(3-fluorophenyl)methyl]-imidazo[1,2-a]pyrazin-6-yl}-5-methyl-5,7-dihydro-6H-pyrrolo[2,3-d]-pyrimidin-6-one]
3 | 101 | 873 | 0.446 | CCCCc1nc(-c2nc(N)c3c(n2)NC(=O)C3(C)c2cc(O)c(Cl)c(F)c2)cn2ccnc12 (stereo not drawn) [Example 39-B, 4-Amino-2-(8-butylimidazo[1,2-a]pyrazin-6-yl)-5-(4-chloro-3-fluoro-5-hydroxyphenyl)-5-methyl-5,7-dihydro-6H-pyrrolo[2,3-d]pyrimidin-6-one]
4 | 128 | 74 | 0.214 | CC1(c2ccc(F)c(O)c2)C(=O)Nc2nc(-c3cn4ccnc4c(Cc4ccc(F)cc4F)n3)nc(N)c21 (stereo not drawn) [Example 22-B, 4-Amino-2-{8-[(2,4-difluorophenyl)methyl]imidazo[1,2-a]pyrazin-6-yl}-5-(4-fluoro-3-hydroxyphenyl)-5-methyl-5,7-dihydro-6H-pyrrolo[2,3-d]pyrimidin-6-one]
5 | 101 | 816 | 0.827 | CC1(c2ccc(Cl)c(O)c2)C(=O)Nc2nc(-c3cn4c(N)cnc4c(Cc4cccc(F)c4)n3)nc(N)c21 (stereo not drawn) [Example 140-A, 4-Amino-2-(3-amino-8-[(3-fluorophenyl)methyl]imidazo[1,2-a]pyrazin-6-yl)-5-(4-chloro-3-hydroxyphenyl)-5-methyl-5,7-dihydro-6H-pyrrolo[2,3-d]pyrimidin-6-one]
6 | 86 | 1540 | 1.74 | CC1(c2nccc(O)c2Cl)C(=O)Nc2nc(-c3cn4ccnc4c(Cc4cc(F)cc(F)c4)n3)nc(N)c21 (stereo not drawn) [Example 111-B, 4-Amino-5-(3-chloro-4-hydroxypyridin-2-yl)-2-{8-[(3,5-difluorophenyl)-methyl]imidazo[1,2-a]-pyrazin-6-yl}-5-methyl-5,7-dihydro-6H-pyrrolo-[2,3-d]pyrimidin-6-one]
7 | 85 | 1040 | 0.126 | CC1(c2cc(O)c(F)c(F)c2)C(=O)Nc2nc(-c3cn4ccnc4c(Cc4ccccc4F)n3)nc(N)c21 (stereo not drawn) [Example 9-B, 4-Amino-5-(3,4-difluoro-5-hydroxyphenyl)-2-{8-[(2-fluorophenyl)methyl]imidazo[1,2-a]pyrazin-6-yl}-5-methyl-5,7-dihydro-6H-pyrrolo[2,3-d]pyrimidin-6-one]
8 | 111 | 260 | 0.312 | CC1(c2ccc(C(F)(F)F)c(O)c2)C(=O)Nc2nc(-c3cn4ccnc4c(Cc4cc(F)cc(F)c4F)n3)nc(N)c21 (stereo not drawn) [Example 33-B, 4-Amino-5-(3-hydroxy-4-(trifluoromethyl)phenyl)-5-methyl-2-{8-[(2,3,5-trifluorophenyl)methyl]imidazo[1,2-a]pyrazin-6-yl}-5,7-dihydro-6H-pyrrolo[2,3-d]pyrimidin-6-one]
9 | 137 | 1200 | 0.646 | CC1(c2ccc(O)c(F)c2)C(=O)Nc2nc(-c3cn4ccnc4c(Cc4ccccc4)n3)nc(N)c21 (stereo not drawn) [Example 128-B, 4-Amino-2-(8-benzyl-imidazo[1,2-a]pyrazin-6-yl)-5-(3-fluoro-4-hydroxyphenyl)-5-methyl-5,7-dihydro-6H-pyrrolo[2,3-d]-pyrimidin-6-one]
10 | 169 | 138 | 0.862 | CC1(c2ccc(F)c(Cl)c2O)C(=O)Nc2nc(-c3cn4ccnc4c(Cc4cc(F)cc(F)c4)n3)nc(N)c21 (stereo not drawn) [Example 96-B, 4-Amino-5-(3-chloro-4-fluoro-2-hydroxyphenyl)-2-{8-[(3,5-difluorophenyl)methyl]imidazo[1,2-a]pyrazin-6-yl}-5-methyl-5,7-dihydro-6H-pyrrolo[2,3-d]pyrimidin-6-one]
11 | 94 | 489 | 0.28 | CC1(c2cc(O)c(C#N)c(F)c2)C(=O)Nc2nc(-c3cn4ncnc4c(Cc4cc(F)cc(F)c4)n3)nc(N)c21 (stereo not drawn) [Example 27-B, 4-(4-Amino-2-{8-[(3,5-difluorophenyl)methyl]-[1,2,4]triazolo[1,5-a]pyrazin-6-yl}-5-methyl-6-oxo-6,7-dihydro-5H-pyrrolo[2,3-d]pyrimidin-5-yl)-2-fluoro-6-hydroxybenzonitrile]
12 | 111 | 243 | 0.317 | CC1(c2cccc(O)c2)C(=O)Nc2nc(-c3cn4ccnc4c(Cc4ccc(F)cc4F)n3)nc(N)c21 (stereo not drawn) [Example 34-B, 4-Amino-2-{8-[(2,4-difluorophenyl)methyl]imidazo[1,2-a]pyrazin-6-yl}-5-(3-hydroxyphenyl)-5-methyl-5,7-dihydro-6H-pyrrolo[2,3-d]pyrimidin-6-one]

The remaining lines, values behind:

Row | SMILES | Emax [1] [%] | EC50 [1] [nM] | Ki [2] [nM]
13 | CC1(c2ccc(Cl)c(O)c2)C(=O)Nc2nc(-c3cn4ncnc4c(CCCC(F)(F)F)n3)nc(N)c21 (stereo not drawn) [Example 87-A, 4-Amino-5-(4-chloro-3-hydroxyphenyl)-5-methyl-2-(8-(4,4,4-trifluorobutyl)-[1,2,4]triazolo[1,5-a]pyrazin-6-yl)-5,7-dihydro-6H-pyrrolo[2,3-d]pyrimidin-6-one] | 111 | 935 | 2.8
14 | CC1(c2cccc(O)c2)C(=O)Nc2nc(-c3cn4ccnc4c(CC4CCCCC4)n3)nc(N)c21 (stereo not drawn) [Example 82-B, 4-Amino-2-(8-(cyclohexylmethyl)imidazo[1,2-a]pyrazin-6-yl)-5-(3-hydroxyphenyl)-5-methyl-5,7-dihydro-6H-pyrrolo[2,3-d]pyrimidin-6-one] | 111 | 207 | 0.402
15 | CC1(c2cc(Cl)c(O)c(Cl)c2)C(=O)Nc2nc(-c3cn4ccnc4c(CC4CCCCC4)n3)nc(N)c21 (stereo not drawn) [Example 113-A, 4-Amino-2-(8-(cyclo-hexylmethyl)imidazo-[1,2-a]pyrazin-6-yl)-5-(3,5-dichloro-4-hydroxy-phenyl)-5-methyl-5,7-dihydro-6H-pyrrolo-[2,3-d]-pyrimidin-6-one] | 91 | 125 | 2.9
16 | CCCCc1nc(-c2nc(N)c3c(n2)NC(=O)C3(C)c2ccc(C(F)(F)F)c(O)c2)cn2ncnc12 (stereo not drawn) [Example 61-B, 4-Amino-2-(8-butyl-[1,2,4]triazolo[1,5-a]pyrazin-6-yl)-5-(3-hydroxy-4-(trifluoromethyl)phenyl)-5-methyl-5,7-dihydro-6H-pyrrolo[2,3-d]pyrimidin-6-one] | 105 | 121 | 2.08
17 | CC1(c2ccc(Cl)c(O)c2Cl)C(=O)Nc2nc(-c3cn4ncnc4c(CC4CCCCC4)n3)nc(N)c21 (stereo not drawn) [Example 67-A, 4-Amino-2-(8-(cyclohexylmethyl)-[1,2,4]triazolo[1,5-a]pyrazin-6-yl)-5-(2,4-dichloro-3-hydroxyphenyl)-5-methyl-5,7-dihydro-6H-pyrrolo[2,3-d]pyrimidin-6-one] | 134 | 728 | 2.65
18 | CC1(c2cc(O)c(C(F)(F)F)cn2)C(=O)Nc2nc(-c3cn4ccnc4c(CC4CCCCC4)n3)nc(N)c21 (stereo not drawn) [Example 147-B, 4-amino-2-{8-(cyclohexylmethyl)-imidazo[1,2-a]pyrazin-6-yl}-5-(4-hydroxy-5-(trifluoromethyl)pyridin-2-yl)-5-methyl-5,7-dihydro-6H-pyrrolo-[2,3-d]pyrimidin-6-one] | 102 | 1200 | 0.905
19 | CC(C)CCc1nc(-c2nc(N)c3c(n2)NC(=O)C3(C)c2cc(O)ccn2)cn2ncnc12 (stereo not drawn) [Example 119-B, 4-Amino-5-(4-hydroxypyridin-2-yl)-2-(8-isopentyl-[1,2,4]-triazolo[1,5-a]pyrazin-6-yl)-5-methyl-5,7-dihydro-6H-pyrrolo-[2,3-d]pyrimidin-6-one] | 75 | 681 | 2.76
20 | CCCCc1nc(-c2nc(N)c3c(n2)NC(=O)C3(C)c2ccc(O)c(F)c2)cn2ncnc12 (stereo not drawn) [Example 71-B, 4-Amino-2-(8-butyl-[1,2,4]triazolo[1,5-a]pyrazin-6-yl)-5-(3-fluoro-4-hydroxyphenyl)-5-methyl-5,7-dihydro-6H-pyrrolo[2,3-d]pyrimidin-6-one] | 81 | 30 | 4.08
21 | Cc1cn2cc(-c3nc(N)c4c(n3)NC(=O)C4(C)c3ccc(Cl)c(O)c3)nc(Cc3ccccc3F)c2n1 (stereo not drawn) [Example 100-A, 4-Amino-5-(4-chloro-3-hydroxyphenyl)-2-{8-[(2-fluorophenyl)methyl]-2-methylimidazo[1,2-a]pyrazin-6-yl}-5-methyl-5,7-dihydro-6H-pyrrolo[2,3-d]pyrimidin-6-one] | 106 | 652 | 0.544
22 | CC1(c2ccc(Cl)c(O)c2)C(=O)Nc2nc(-c3cn4ncnc4c(Cc4ccc(F)cc4)n3)nc(N)c21 (stereo not drawn) [Example 26-A, 4-Amino-5-(4-chloro-3-hydroxyphenyl)-2-{8-[(4-fluorophenyl)methyl]-[1,2,4]triazolo[1,5-a]pyrazin-6-yl}-5-methyl-5,7-dihydro-6H-pyrrolo[2,3-d]pyrimidin-6-one] | 105 | 426 | 0.276
